For 38 compounds, inhibition, melting point and Ki results are on record in PMC11243685, “Synthesis and Enzymatic Evaluation of a Small Library of Substituted Phenylsulfonamido-Alkyl Sulfamates towards Carbonic Anhydrase II” (Molecules, 2024).

Data set [1] has as its target T1, bovine carbonic anhydrase II (Bos taurus, UniProt P00921).
T1 construct: carbonic anhydrase II (bCAII, ≥3000 W-A units/mg from bovine erythrocytes) from Sigma; purchased Sigma (Taufkirchen, Germany); host or cells: isolated from bovine erythrocytes
Put plainly: Enzymatic assay of bCA II inhibition, absorbance at 415 nm.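 For all read-outs here: enzyme is carbonic anhydrase II isolated from bovine erythrocytes, with its activity followed photometrically at 415 nm.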 It is filed as biochemical. Conditions: for inhibition at 1 µM: bCA II, 1 μM concentration of the inhibitor, triplicate with three technical replicas; for Ki: CA II, from Lineweaver–Burk, Dixon and Cornish Bowden plots, read-out: Inhibition constant Ki.
Protocol: The enzymatic assays have been performed with carbonic anhydrase II (bCAII, ≥3000 W-A units/mg from bovine erythrocytes) from Sigma (Taufkirchen, Germany) using a BMG Labtech Spectrostar Omega apparatus (BMG Labtech, Ortenberg, Germany) measuring λ = 415 nm. Conditions have been described previously [72]. Ki and Ki′ values were determined from Lineweaver–Burk, Dixon and Cornish Bowden plots, respectively.

The structures appear in SMILES notation.

T1 sequence (P00921 whole entry): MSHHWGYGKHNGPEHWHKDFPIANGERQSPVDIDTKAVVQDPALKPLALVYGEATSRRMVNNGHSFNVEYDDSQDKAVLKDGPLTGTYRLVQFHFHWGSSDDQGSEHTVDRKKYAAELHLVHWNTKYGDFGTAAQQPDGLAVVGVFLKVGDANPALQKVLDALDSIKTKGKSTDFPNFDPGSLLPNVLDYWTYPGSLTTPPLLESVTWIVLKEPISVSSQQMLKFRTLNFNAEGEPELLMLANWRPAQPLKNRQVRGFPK

By inhibition is commonly meant the percentage by which the read-out fell short of the control. A higher inhibition goes with a strong effect. Regarding `Cc1ccccc1S(=O)(=O)NCCCCCOS(N)(=O)=O` [29b, 5-[(2-Methylphenyl)sulfonamido]pentyl Sulfamate], in data set [1], the inhibition at 1 µM came to 57.2 ± 0.7%.

Broadly, the melting point is the temperature of the solid-liquid transition. `O=S(=O)(NCCCCCCCCO)c1ccccc1` [7a, N-(8-Hydroxyoctyl)benzene Sulfonamide] yielded a melting point of 59 to 60 °C.

In turn, `Cc1ccc(S(=O)(=O)NCCCCCCO)cc1` [16a, N-(6-Hydroxyhexyl)-4-methylbenzene Sulfonamide] had a melting point of 49 to 51 °C. `CC(C)(C)c1cccc(S(=O)(=O)NCCCCCCCOS(N)(=O)=O)c1` [63b, 7-[(3-(tert-Butyl)phenyl)sulfonamido]heptyl Sulfamate] registered an inhibition at 1 µM in data set [1] of 33.3 ± 0.3%.

In turn, `O=S(=O)(NCCCCCCCCCCCO)c1ccccc1` [10a, N-(11-Hydroxyundecyl)benzene Sulfonamide] showed a melting point of 58 to 59 °C. For the compound `NS(=O)(=O)OCCNS(=O)(=O)c1ccccc1` [1b, 2-(Phenylsulfonamido]ethyl Sulfamate], in data set [1], testing at 1 µM gave an inhibition of 59.2 ± 0.8%. As to `CC(C)(C)c1ccc(S(=O)(=O)NCCCCCO)cc1` [52a, 4-(tert-Butyl)-N-(5-hydroxypentyl)benzene Sulfonamide], the melting point was in the range of 53 to 54 °C. On to `CC(C)c1cccc(S(=O)(=O)NCCCCOS(N)(=O)=O)c1` [42b, 4-[(3-Isopropylphenyl)sulfonamido]butyl Sulfamate], for which the inhibition at 1 µM in data set [1] came to 35.3 ± 0.5%. With `O=S(=O)(NCCCCCCO)c1ccc(C2CCCCC2)cc1` [72a, 4-Cyclohexyl-N-(6-hydroxyhexyl)benzene Sulfonamide], the melting point fell in the range of 87 to 88 °C. `NS(=O)(=O)OCCCCCNS(=O)(=O)c1ccccc1` [4b, 5-(Phenylsulfonamido]pentyl Sulfamate] showed an inhibition at 1 µM in data set [1] of 51.8 ± 0.7%. Regarding `CC(C)(C)c1ccc(S(=O)(=O)NCCCCCCCCO)cc1` [55a, 4-(tert-Butyl)-N-(8-hydroxyoctyl)benzene Sulfonamide], the melting point is 69 to 71 °C. Take `CC(C)c1ccccc1S(=O)(=O)NCCCCCCCOS(N)(=O)=O` [47b, 7-[(2-Isopropylphenyl)sulfonamido]heptyl Sulfamate]: the inhibition at 1 µM in data set [1] turned out to be 38.4 ± 0.2%. Still for that read-out and setting: then `CC(C)c1cccc(S(=O)(=O)NCCCCCCCOS(N)(=O)=O)c1` [45b, 7-[(3-Isopropylphenyl)sulfonamido]heptyl Sulfamate], with 37 ± 0.3%.

As usually defined, the Ki is the equilibrium dissociation constant of an inhibitor or competing ligand from its target. Turning to `Cc1ccccc1S(=O)(=O)NCCCCCCOS(N)(=O)=O` [30b, 6-[(2-Methylphenyl)sulfonamido]hexyl Sulfamate], in data set [1], the inhibition constant (Ki) came out at 1580 ± 20 nM and the inhibition at 1 µM came out at 68.1 ± 0.3%. In the case of `CC(C)(C)c1ccccc1S(=O)(=O)NCCCCCOS(N)(=O)=O` [65b, 5-[(2-(tert-Butyl)phenyl)sulfonamido]pentyl Sulfamate], the inhibition at 1 µM in data set [1] is 56.2 ± 0.8%. The compound `Cc1ccccc1S(=O)(=O)NCCCCCCCOS(N)(=O)=O` [31b, 7-[(2-Methylphenyl)sulfonamido]heptyl Sulfamate] came in with an inhibition at 1 µM in data set [1] of 55.6 ± 0.7%.

In data set [1], `NS(=O)(=O)OCCNS(=O)(=O)c1ccc(C2CCCCC2)cc1` [68b, 2-[(4-Cyclohexylphenyl)sulfonamido]ethyl Sulfamate] registered an inhibition at 1 µM of 52.1 ± 1.2%. As for `CC(C)(C)c1cccc(S(=O)(=O)NCCCCCCOS(N)(=O)=O)c1` [62b, 6-[(3-(tert-Butyl)phenyl)sulfonamido]hexyl Sulfamate], in data set [1], testing at 1 µM gave an inhibition of 41.7 ± 0.8%. The compound `NS(=O)(=O)OCCCCCCCNS(=O)(=O)c1ccc(C2CCCCC2)cc1` [73b, 7-[(4-Cyclohexylphenyl)sulfonamido]heptyl Sulfamate] gave an inhibition at 1 µM in data set [1] of 14.8 ± 0.4%. On the same count and under the same terms, in the case of `CC(C)c1cccc(S(=O)(=O)NCCCCCCCCOS(N)(=O)=O)c1` [46b, 8-[(3-Isopropylphenyl)sulfonamido]octyl Sulfamate] it was 29.5 ± 0.9%. Same read-out and setting: in the case of `NS(=O)(=O)OCCCCNS(=O)(=O)c1ccccc1` [3b, 4-(Phenylsulfonamido]butyl Sulfamate] it was 32.2 ± 0.3%; in that of `CC(C)(C)c1ccccc1S(=O)(=O)NCCCCCCOS(N)(=O)=O` [66b, 6-[(2-(tert-Butyl)phenyl)sulfonamido]hexyl Sulfamate], 34.5 ± 0.4%. Consider `CC(C)c1ccccc1S(=O)(=O)NCCCCCCCCOS(N)(=O)=O` [48b, 8-[(2-Isopropylphenyl)sulfonamido]octyl Sulfamate], for which at 1 µM the inhibition in data set [1] was 34.2 ± 0.7%.

`CC(C)(C)c1cccc(S(=O)(=O)NCCCCOS(N)(=O)=O)c1` [60b, 4-[(3-(tert-Butyl)phenyl)sulfonamido]butyl Sulfamate] registered an inhibition at 1 µM in data set [1] of 43.3 ± 0.6%. As for `CC(C)(C)c1cccc(S(=O)(=O)NCCCOS(N)(=O)=O)c1` [59b, 3-[(3-(tert-Butyl)phenyl)sulfonamido]propyl Sulfamate], in data set [1], the inhibition at 1 µM turned out to be 53.9 ± 0.3%. For `CC(C)c1cccc(S(=O)(=O)NCCCOS(N)(=O)=O)c1` [41b, 3-[(3-Isopropylphenyl)sulfonamido]propyl Sulfamate], in data set [1], the inhibition at 1 µM came out at 50.1 ± 0.9%. The compound `NS(=O)(=O)OCCCCCNS(=O)(=O)c1ccc(C2CCCCC2)cc1` [71b, 5-[(4-Cyclohexylphenyl)sulfonamido]pentyl Sulfamate] registered an inhibition at 1 µM in data set [1] of 18.6 ± 1%. Same read-out and setting: then `CC(C)(C)c1ccccc1S(=O)(=O)NCCCCCCCOS(N)(=O)=O` [67b, 7-[(2-(tert-Butyl)phenyl)sulfonamido]heptyl Sulfamate], with 27.5 ± 0.3%. For the compound `NS(=O)(=O)OCCCCCCCCNS(=O)(=O)c1ccc(C2CCCCC2)cc1` [74b, 8-[(4-Cyclohexylphenyl)sulfonamido]octyl Sulfamate], in data set [1], the inhibition at 1 µM is 14.2 ± 1.1%. In data set [1], `CC(C)c1cccc(S(=O)(=O)NCCCCCCOS(N)(=O)=O)c1` [44b, 6-[(3-Isopropylphenyl)sulfonamido]hexyl Sulfamate] returned an inhibition at 1 µM of 45.5 ± 0.7%. `Cc1ccccc1S(=O)(=O)NCCCCOS(N)(=O)=O` [28b, 4-[(2-Methylphenyl)sulfonamido]butyl Sulfamate]: the inhibition at 1 µM in data set [1] amounted to 37.9 ± 0.7%. Still for that read-out and setting: then `CC(C)c1cccc(S(=O)(=O)NCCCCCOS(N)(=O)=O)c1` [43b, 5-[(3-Isopropylphenyl)sulfonamido]pentyl Sulfamate], with 44.4 ± 0.3%; and `Cc1ccccc1S(=O)(=O)NCCCCCCCCOS(N)(=O)=O` [32b, 8-[(2-Methylphenyl)sulfonamido]octyl Sulfamate], with 56.2 ± 0.8%. Regarding `CC(C)c1cccc(S(=O)(=O)NCCOS(N)(=O)=O)c1` [40b, 2-[(3-Isopropylphenyl)sulfonamido]ethyl Sulfamate], in data set [1], the Ki worked out at 1640 ± 30 nM and the inhibition at 1 µM is 63.7 ± 0.1%. As for `NS(=O)(=O)OCCCCCCCCCCNS(=O)(=O)c1ccc(C2CCCCC2)cc1` [76b, 10-[(4-Cyclohexylphenyl)sulfonamido]decyl Sulfamate], in data set [1], the inhibition at 1 µM came to 19.7 ± 1.6%. `CC(C)(C)c1cccc(S(=O)(=O)NCCCCCOS(N)(=O)=O)c1` [61b, 5-[(3-(tert-Butyl)phenyl)sulfonamido]pentyl Sulfamate] registered an inhibition at 1 µM in data set [1] of 39.2 ± 0.1%. The same measure, in the same setting: then `CC(C)(C)c1cccc(S(=O)(=O)NCCOS(N)(=O)=O)c1` [58b, 2-[(3-(tert-Butyl)phenyl)sulfonamido]ethyl Sulfamate], with 54 ± 0.9%; and `NS(=O)(=O)OCCCCNS(=O)(=O)c1ccc(C2CCCCC2)cc1` [70b, 4-[(4-Cyclohexylphenyl)sulfonamido]butyl Sulfamate], with 34.7 ± 2.5%.
